In patent publication US20210386714A1, “DRUG AND GENE THERAPY TO TREAT HIGH MYOPIA AND OTHER OCULAR DISORDERS WITH ENLARGED EYE GLOBES” (City University of Hong Kong, priority 2020, published 2021):
Entries after “also recorded” stand apart in the source; their conditions may differ.

How the values were obtained:
[1] = test system: SREBP2 transcriptional targets and Lrp2 in mouse RPE; assay: mouse RPE explant model, mRNA level by qPCR; type: cell-based
Description: Eyes were quickly removed from the euthanized mouse and dipped in 70% ethanol for decontamination. Under a dissecting stereomicroscope, connective tissues and muscles were carefully removed. After washing twice in PBS, eyes were immersed in warm culture medium (DMEM:F12+10% FBS). Cornea was cutoff using curved scissors, and lens was pulled out gently with tweezers. Or a serrate was cut off to remove iris and cornea. Retina and optic nerve were carefully and completely removed from eye cups. Four radial cuts were made to enable flat-mounting of eye cups. Each eye cup was transferred onto the center of a floating polycarbonate nucleopore filter membrane (Whatman 110406, 0.2 Micron) placed in 6-well plates with the RPE side facing down. The freshly prepared BF175 stock solution was added to the full culture medium to a final BF175 concentration of 12.5 uM. Half of the medium was replaced with fresh medium on the second day. RPE flat-mounts were harvested at 48 hr in explant and processed for RPE isolation and RNA extraction.
Eyecups without retina and optic nerve tissues were dissected as described in the RPE explant section. Two eyes of the same mouse were pooled in one tube and processed together. RPE were incubated in papain solution (Worthington) for 15 minutes. After washing twice in warm medium, RPE were triturated with 600 μl pipette tip gently to dissociate the pigmented RPE cells from sclera. Resuspended cell solution was transferred to a clean tube and spun down at 600 g.
RNAs were converted to cDNA using PrimeScript RT reagent kit with gDNA Eraser (Takara). qPCR was performed using PowerUp Sybr Green Master Mix (Thermofisher) on QuantStudio 3 Real-Time PCR stems (Applied Biosystems). Gapdh was used as the normalizing control. qPCR primers were listed in Supplementary Information.

[2] = test system: eye enlargement induced by Lrp2 knockdown (AAV8-Best1-Lrp2 sh1); assay: eye globe dimension measurement after subretinal co-injection in Lrp2 knockdown eyes; type: in vivo, mouse; conditions: subretinal co-injection with virus at P0, BF175 12.5 uM
Procedure: Subretinal injection into P0 (P2 for AAV-RK-viruses) neonate eyes was performed as known in the art. Approximately 0.25 μl of viruses in PBS was injected into the subretinal space using a pulled angled glass pipette controlled by a FemtoJet (Eppendorf). BF175 stock solution (25 mM in DMSO) was first mixed with Tween-20 (Sigma-Aldrich) at a ratio of 5:1 in order to help BF175 dissolve in PBS. Then the mixed solution was added to the virus to a final BF175 concentration of 12.5 uM. The vehicle treatment was virus added with the same amount of DMSO with Tween-20. For animals used for qPCR and RNA-seq, both left and right eyes were injected and used for RNA extraction. For animals used for eye size measurement or other phenotype characterizations, only the right eye of the animal was injected, and the fellow left eye was uninjected for with-in animal controls.
CD-1 mice were sacrificed at indicated ages. Eyes were enucleated, and connective tissues and muscles were carefully removed using tweezers and scissors. Eyes were immersed in PBS in 6 cm petri dish and imaged under a Nikon SMZ800N dissection scope with 2× magnification. ED and AL were measured in imageJ and converted to millimeters. OCT

[3] = mouse RPE explant, 12.5 uM BF175 in culture medium, 48 hr

| SMILES | mRNA level of Hmgcr [1, 3] | mRNA level of Ldlr [1, 3] | mRNA level of Lrp2 (Lrp2 gene expression in RPE) [1, 3] | Lrp2 sh1-induced increase in eye size [2] | Lrp2 gene expression in RPE ([1]; RPE cells, Fatostatin, concentration not given) |
| --- | --- | --- | --- | --- | --- |
| CC1(C)OB(c2ccc(/C=C/c3cc(Cl)cc(Cl)c3)cc2)OC1(C)C [BF175] | reduced | reduced | significantly increased | rescued; also recorded: effectively suppressed |  |
| Br.CCCc1cc(-c2nc(-c3ccc(C)cc3)cs2)ccn1 [Fatostatin, reference compound] |  |  |  |  | increases |
